biological target: T1, human mPGES-1 (Homo sapiens, UniProt O14684); assay: Microsomal prostaglandin E synthase biochemical assay; conditions: microsome preparation containing human mPGES-1; substrate PGH2 10.8 μM, GSH 2.5 mM, pH 6.8; PGE2 by HTRF; average of at least n=2
T1 construct: host or cells: microsomes
T1 sequence (O14684 1-152): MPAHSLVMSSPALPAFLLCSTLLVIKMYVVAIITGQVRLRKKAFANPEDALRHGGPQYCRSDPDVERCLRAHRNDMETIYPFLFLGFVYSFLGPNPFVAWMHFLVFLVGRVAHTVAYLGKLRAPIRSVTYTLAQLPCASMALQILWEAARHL
Description: Compounds were tested as inhibitors of microsomal prostaglandin E synthase activity in microsomal prostaglandin E synthase assays and whole cell assays. These assays measure prostaglandin E2 (PGE2) synthesis which is taken as a measure of prostaglandin E synthase activity. Microsomal prostaglandin E synthase biochemical assays used microsomal prostaglandin E synthase-1 in microsomal preparations. The source of the microsomes can be for example interleukin-1β-stimulated human A549 cells (which express human mPGES-1) or Sf9 cells transfected with plasmids encoding human mPGES-1 cDNA.
A solution of test compound was added to a diluted microsome preparation containing is human mPGES-1 and pre-incubated for 15 minutes in potassium phosphate buffer pH 6.8 with cofactor glutathione (GSH). Corresponding solutions without test compound were used as positive controls, and corresponding solutions without test compound and without microsomes were used as negative controls. The enzymatic reaction was then started by addition of the substrate PGH2 in an organic solution (dry acetonitrile).
The reaction was stopped after one minute by adding an acidic solution (pH 1.9) of ferric chloride and citrate (final concentrations 7 mM and 47 mM respectively), by which the PGH2 was sequestered (the PGH2 is reduced to mainly 12-hydroxy heptadecatrineoic acid (12-HHT) which is not detected by the subsequent PGE2 detection step). The resulting solution was then pH neutralized by addition of potassium phosphate buffer, prior to diluting an aliquot of the resulting solution in a weak potassium phosphate buffer (50 mM, pH 6.8) containing 0.2% BSA (w/v). […] The PGE2 formed was quantified by use of a commercial HTRF based kit (catalogue #62PG2PEC or #62P2APEC from Cisbio International). 100% activity was defined as the PGE2 production in positive controls subtracted by the PGE2 production in the negative controls. IC50 values were then determined using standard procedures.

SMILES | IC50
NS(=O)(=O)c1ccccc1S(=O)(=O)NC(=O)c1ccc(OCc2ccccc2)c(OCC2CC2)c1 [Example 1, 4-(Benzyloxy)-3-(cyclopropylmethoxy)-N-(2-sulfamoylphenylsulfonyl)benzamide] | 280 nM
COc1cc(C(=O)NS(=O)(=O)c2ccccc2S(N)(=O)=O)ccc1COc1ccc(C)cc1 [Example 2, 3-Methoxy-N-(2-sulfamoylphenylsulfonyl)-4-(p-tolyloxymethyl)benzamide] | 31 nM
NS(=O)(=O)c1ccccc1S(=O)(=O)NC(=O)c1ccc(C#CC2CCCC2)c(OCC(F)F)c1 [Example 5, 4-(Cyclopentylethynyl)-3-(2,2-difluoroethoxy)-N-(2-sulfamoylphenylsulfonyl)benzamide] | 14 nM
CC(C)(C)C#Cc1ccc(C(=O)NS(=O)(=O)c2ccccc2S(N)(=O)=O)cc1OCC(F)F [Example 6, 3-(2,2-Difluoroethoxy)-4-(3,3-dimethylbut-1-ynyl)-N-(2-sulfamoylphenylsulfonyl)benzamide] | 25 nM
COc1cc(C(=O)NS(=O)(=O)c2ccccc2S(N)(=O)=O)ccc1C#Cc1ccc(F)cc1 [Example 16, 4-((4-Fluorophenyl)ethynyl)-3-methoxy-N-(2-sulfamoylphenylsulfonyl)benzamide] | 16 nM
CC(C)C#Cc1ccc(C(=O)NS(=O)(=O)c2ccccc2S(N)(=O)=O)cc1OCC1CC1 [Example 23, 3-(Cyclopropylmethoxy)-4-(3-methylbut-1-ynyl)-N-(2-sulfamoylphenylsulfonyl)benzamide] | 34 nM
NS(=O)(=O)c1ccccc1S(=O)(=O)NC(=O)c1ccc(CN2CC(F)(F)C(F)(F)C2)cc1 [Example 24, N-(2-Sulfamoylphenylsulfonyl)-4-((3,3,4,4-tetrafluoropyrrolidin-1-yl)methyl)benzamide] | 2900 nM
CC(C)C#Cc1ccc(C(=O)NS(=O)(=O)c2ccccc2S(N)(=O)=O)cc1OCCC(C)(C)O [Example 25, 3-(3-Hydroxy-3-methylbutoxy)-4-(3-methylbut-1-ynyl)-N-(2-sulfamoylphenylsulfonyl)benzamide] | 130 nM
CC(C)C#Cc1ccc(C(=O)NS(=O)(=O)c2ccccc2S(N)(=O)=O)cc1OC(C)C [Example 26, 3-Isopropoxy-4-(3-methylbut-1-ynyl)-N-(2-sulfamoylphenylsulfonyl)benzamide] | 85 nM
COC(C)(C)CCOc1cc(C(=O)NS(=O)(=O)c2ccccc2S(N)(=O)=O)ccc1C#CC1CC1 [Example 27, 4-(Cyclopropylethynyl)-3-(3-methoxy-3-methylbutoxy)-N-(2-sulfamoylphenylsulfonyl)benzamide] | 85 nM
CC(C)C#Cc1ccc(C(=O)NS(=O)(=O)c2ccccc2S(N)(=O)=O)cc1OCC(C)C [Example 28, 3-Isobutoxy-4-(3-methylbut-1-ynyl)-N-(2-sulfamoylphenylsulfonyl)benzamide] | 20 nM
COc1cc(C(=O)NS(=O)(=O)c2ccccc2S(N)(=O)=O)ccc1OCc1ccc(C)cc1 [Example 29, 3-Methoxy-4-(4-methylbenzyloxy)-N-(2-sulfamoylphenylsulfonyl)benzamide] | 390 nM
NS(=O)(=O)c1ccccc1S(=O)(=O)NC(=O)c1ccc(OCc2ccccc2)c(OCCC(F)(F)F)c1 [Example 30, 4-(Benzyloxy)-N-(2-sulfamoylphenylsulfonyl)-3-(3,3,3-trifluoropropoxy)benzamide] | 130 nM
NS(=O)(=O)c1ccccc1S(=O)(=O)NC(=O)c1ccc(C#CC(O)(C2CC2)C2CC2)cc1 [Example 31, 4-(3,3-Dicyclopropyl-3-hydroxyprop-1-ynyl)-N-(2-sulfamoylphenylsulfonyl)benzamide] | 220 nM
CCCC(C)C#Cc1ccc(C(=O)NS(=O)(=O)c2ccccc2S(N)(=O)=O)cc1CO (stereo not shown) [Example 32, 3-(Hydroxymethyl)-4-(3-methylhex-1-ynyl)-N-(2-sulfamoylphenylsulfonyl)benzamide] | 60 nM
CC(C)Oc1cc(C(=O)NS(=O)(=O)c2ccccc2S(N)(=O)=O)ccc1C#Cc1ccc(C(F)(F)F)cc1 [Example 33, 3-Isopropoxy-N-(2-sulfamoylphenylsulfonyl)-4-((4-(trifluoromethyl)phenyl)ethynyl)benzamide] | 54 nM
CCCC(C)C#Cc1ccc(C(=O)NS(=O)(=O)c2ccccc2S(N)(=O)=O)cc1OCCC(F)(F)F (stereo not shown) [Example 35, 4-(3-Methylhex-1-ynyl)-N-(2-sulfamoylphenylsulfonyl)-3-(3,3,3-trifluoropropoxy)benzamide] | 14 nM

Now those with a lower IC50, led by results:

IC50 | SMILES
13 nM | CC(C)(C)C#Cc1ccc(C(=O)NS(=O)(=O)c2ccccc2S(N)(=O)=O)cc1OCC1CC1 [Example 22, 3-(Cyclopropylmethoxy)-4-(3,3-dimethylbut-1-ynyl)-N-(2-sulfamoylphenylsulfonyl)benzamide]
12 nM | COc1cc(C(=O)NS(=O)(=O)c2ccccc2S(N)(=O)=O)ccc1C#Cc1cccc(C)c1 [Example 18, 3-Methoxy-N-(2-sulfamoylphenylsulfonyl)-4-(m-tolylethynyl)benzamide]
12 nM | COc1cc(C(=O)NS(=O)(=O)c2ccccc2S(N)(=O)=O)ccc1C#Cc1cccc(F)c1 [Example 20, 4-((3-Fluorophenyl)ethynyl)-3-methoxy-N-(2-sulfamoylphenylsulfonyl)benzamide]
12 nM | CCCC(C)C#Cc1ccc(C(=O)NS(=O)(=O)c2ccccc2S(N)(=O)=O)cc1OCCOCC(F)(F)F (stereo not shown) [Example 34, 4-(3-Methylhex-1-ynyl)-N-(2-sulfamoylphenylsulfonyl)-3-(2-(2,2,2-trifluoroethoxy)ethoxy)benzamide]
11 nM | COc1cc(C(=O)NS(=O)(=O)c2ccccc2S(N)(=O)=O)ccc1C#Cc1ccccc1C [Example 14, 3-Methoxy-N-(2-sulfamoylphenylsulfonyl)-4-(o-tolylethynyl)benzamide]
10 nM | NS(=O)(=O)c1ccccc1S(=O)(=O)NC(=O)c1ccc(C#Cc2ccc(F)cc2)cc1 [Example 11, 4-((4-Fluorophenyl)ethynyl)-N-(2-sulfamoylphenylsulfonyl)benzamide]
8.4 nM | COc1cc(C(=O)NS(=O)(=O)c2ccccc2S(N)(=O)=O)ccc1C#Cc1ccc(Cl)cc1 [Example 15, 4-((4-Chlorophenyl)ethynyl)-3-methoxy-N-(2-sulfamoylphenylsulfonyl)benzamide]
8.2 nM | NS(=O)(=O)c1ccccc1S(=O)(=O)NC(=O)c1ccc(C#Cc2ccccc2)c(OCC(F)F)c1 [Example 3, 3-(2,2-Difluoroethoxy)-4-(phenylethynyl)-N-(2-sulfamoylphenylsulfonyl)benzamide]
7.3 nM | COc1cc(C(=O)NS(=O)(=O)c2ccccc2S(N)(=O)=O)ccc1C#Cc1cccc(Cl)c1 [Example 19, 4-((3-Chlorophenyl)ethynyl)-3-methoxy-N-(2-sulfamoylphenylsulfonyl)benzamide]
6.4 nM | Cc1ccccc1C#Cc1ccc(C(=O)NS(=O)(=O)c2ccccc2S(N)(=O)=O)cc1 [Example 8, N-(2-Sulfamoylphenylsulfonyl)-4-(o-tolylethynyl)benzamide]
6.3 nM | COc1cc(C(=O)NS(=O)(=O)c2ccccc2S(N)(=O)=O)ccc1C#Cc1ccc(C)cc1 [Example 17, 3-Methoxy-N-(2-sulfamoylphenylsulfonyl)-4-(p-tolylethynyl)benzamide]
5.7 nM | NS(=O)(=O)c1ccccc1S(=O)(=O)NC(=O)c1ccc(C#Cc2cccc(F)c2)cc1 [Example 13, 4-((3-Fluorophenyl)ethynyl)-N-(2-sulfamoylphenylsulfonyl)benzamide]
5 nM | Cc1ccc(C#Cc2ccc(C(=O)NS(=O)(=O)c3ccccc3S(N)(=O)=O)cc2OCC(F)F)cc1 [Example 4, 3-(2,2-Difluoroethoxy)-N-(2-sulfamoylphenylsulfonyl)-4-(p-tolylethynyl)benzamide]
5 nM | NS(=O)(=O)c1ccccc1S(=O)(=O)NC(=O)c1ccc(-c2cc3ccccc3o2)c(OCC2CC2)c1 [Example 21, 4-(Benzofuran-2-yl)-3-(cyclopropylmethoxy)-N-(2-sulfamoylphenylsulfonyl)benzamide]
4.5 nM | NS(=O)(=O)c1ccccc1S(=O)(=O)NC(=O)c1ccc(-c2cc3ccccc3o2)c(OCC(F)F)c1 [Example 7, 4-(Benzofuran-2-yl)-3-(2,2-difluoroethoxy)-N-(2-sulfamoylphenylsulfonyl)benzamide]
4.4 nM | NS(=O)(=O)c1ccccc1S(=O)(=O)NC(=O)c1ccc(C#Cc2cccc(Cl)c2)cc1 [Example 12, 4-((3-Chlorophenyl)ethynyl)-N-(2-sulfamoylphenylsulfonyl)benzamide]
3.7 nM | NS(=O)(=O)c1ccccc1S(=O)(=O)NC(=O)c1ccc(C#Cc2ccc(Cl)cc2)cc1 [Example 10, 4-((4-Chlorophenyl)ethynyl)-N-(2-sulfamoylphenylsulfonyl)benzamide]
